According to patent publication US20180110754A1, “CENICRIVIROC FOR THE TREATMENT OF FIBROSIS” (Tobira Therapeutics, Inc., priority 2015, published 2018):

Columns and labels:
CCR3 = CCR3 (Homo sapiens, UniProt P51677); assay: Inhibition of ligand binding to CCR3
HIV-1 = assay: Study 201 Phase 2a 10-day monotherapy: HIV-1 RNA and resistance; type: in vivo, human; settings: for Median nadir change from baseline in HIV-1 RNA: 10 days
Procedure: (§1) Participants were required to be antiretroviral treatment-experienced, CCR5 antagonist-naive, with HIV-1 RNA levels of at least 5000 copies/mL and CD4+ cell counts of at least 250 cells/mm^3 was performed.
In Study 201, drug resistance testing was performed at Baseline, Day 7, and Day 40 (or at the “Early Termination” visit, if applicable).

MCP-1 = assay: Study 201: MCP-1, hs-CRP and IL-6 levels; type: in vivo, human
Procedure: as §1
Exploratory assessment of changes in MCP-1 (a ligand of CCR2, which is a chemokine co-receptor expressed on pro-inflammatory monocytes, also known as CCL2), hs-CRP, and IL-6 were performed and significant dose-dependent increases in MCP-1 were observed (Table 23).

[1] = tested on: MCP-1, sCD14, hs-CRP, IL-6, D-dimer, fibrinogen; assay: Study 202: biomarkers of inflammation and immune function; type: in vivo, human
Procedure: As an exploratory analysis, levels of inflammation biomarkers MCP-1, sCD14, high sensitivity C-reactive protein [hs-CRP], interleukin-6 [IL-6], D-dimer, and fibrinogen) were measured. Baseline values and changes from baseline at Week 24 and Week 48 of MCP-1, sCD14, hs-CRP, IL-6, D-dimer, and fibrinogen are summarized in Table 25.
The sCD14 samples were originally analyzed in 2 separate batches: Batch 1 included samples leading up to the Week 24 primary analysis and Batch 2 included Week 32 and Week 48 (end of study) samples. A repeat analysis of archived samples all analyzed in one batch was conducted for consistency in analysis across time points. To control for the effects of covariates, a linear mixed-model repeated-measures analysis was conducted on the changes from baseline in sCD14 (analysis dated September 2013).

[2] = Chronic (3- and 9-month) monkey toxicity studies; type: in vivo; settings: 1000 mg/kg/day
[3] = Mouse thioglycollate-induced peritonitis model: circulating blood cell counts; settings: in vivo
Procedure: The lavage fluid was placed on wet ice pending processing for total and differential cell counts using the Advia analyzer. Following the lavage collection, a blood sample (0.7 mL) was collected from each mouse by intracardiac puncture or from the vena cava (collection time was recorded). 0.5 mL of blood was placed in an EDTA tube, transferred to clinical pathology and analyzed for differential cell counts using the Advia analyzer. 0.2 mL of blood was placed in a K2EDTA tube and processed to plasma. The plasma was collected by centrifugation (3000 rpm for 10 minutes at 4° C.) and placed on dry ice. The samples were analyzed to determine CVC plasma levels. After blood collection, the animals were then exsanguinated by sectioning of the abdominal aorta.
Statistical Analysis: One-way ANOVA with post-hoc Dunnett's statistical analysis was performed on differential cell counts obtained from lavage and blood samples. The analysis was performed in comparison to Group 2.

mouse monocytes = assay: CCL2-induced chemotaxis ex vivo on mouse monocytes; type: cell-based
Procedure: Monocyte/macrophage recruitment was assessed in vivo in a mouse model of thioglycollate-induced peritonitis. CCL2-induced chemotaxis was evaluated ex vivo on mouse monocytes. […] Study assessments included body and liver/kidney weight, liver function test, liver/kidney morphology and collagen deposition, fibrogenic gene and protein expression, and pharmacokinetic analyses.

[4] = known short half-life; cited from earlier work

Sequence of CCR3 (P51677 whole entry): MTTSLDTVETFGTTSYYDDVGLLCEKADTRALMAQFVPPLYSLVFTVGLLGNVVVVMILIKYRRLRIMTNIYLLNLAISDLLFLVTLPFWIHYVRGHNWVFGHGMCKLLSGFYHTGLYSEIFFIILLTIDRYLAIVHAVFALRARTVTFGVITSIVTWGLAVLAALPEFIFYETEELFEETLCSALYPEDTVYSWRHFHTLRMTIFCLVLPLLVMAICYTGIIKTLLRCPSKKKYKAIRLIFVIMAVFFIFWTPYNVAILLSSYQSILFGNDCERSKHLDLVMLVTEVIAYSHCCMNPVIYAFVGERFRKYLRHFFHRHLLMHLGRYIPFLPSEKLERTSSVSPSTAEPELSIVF

## CCCCOCCOc1ccc(-c2ccc3c(c2)/C=C(/C(=O)Nc2ccc([S@@+]([O-])Cc4cncn4CCC)cc2)CCCN3CC(C)C)cc1 [CVC, (S)-8-[4-(2-Butoxyethoxy)phenyl]-1-isobutyl-N-(4-{[(1-propyl-1H-imidazol-5-yl)methyl]sulfinyl}phenyl)-1,2,3,4-tetrahydro-1-benzazocine-5-carboxamide]
CCR3
  Inhibition of ligand binding to CCR3: only weakly inhibited
HIV-1; 25 mg once daily
  Median nadir change from baseline in HIV-1 RNA: −0.7 log^10 copies/mL
HIV-1; 50 mg once daily
  Median nadir change from baseline in HIV-1 RNA: −1.6 log^10 copies/mL
HIV-1; 75 mg once daily
  Median nadir change from baseline in HIV-1 RNA: −1.8 log^10 copies/mL
HIV-1; 150 mg once daily
  Median nadir change from baseline in HIV-1 RNA: −1.7 log^10 copies/mL
HIV-1; all subjects with evaluable samples
  Drug resistance testing (Baseline, Day 7, Day 40): fully susceptible
MCP-1; 10-day study, overall
  Effect on hs-CRP or IL-6 levels: no effect
MCP-1; CVC 25 mg
  MCP-1 Baseline, Mean: 20.0 pg/mL
  MCP-1 Baseline, Median: 16.0 pg/mL
  MCP-1 Baseline, Range: 7 to 44 pg/mL
  MCP-1 Change from Baseline to Day 10, Median: +25.0 pg/mL
  MCP-1 Day 10, Mean: 75.3 pg/mL
  MCP-1 Day 10, Median: 39.0 pg/mL
  MCP-1 Day 10, Range: 10 to 287 pg/mL
MCP-1; CVC 50 mg
  MCP-1 Baseline, Mean: 12.6 pg/mL
  MCP-1 Baseline, Median: 6.0 pg/mL
  MCP-1 Baseline, Range: 5 to 37 pg/mL
  MCP-1 Change from Baseline to Day 10, Median: +56.0 pg/mL
  MCP-1 Day 10, Mean: 101.3 pg/mL
  MCP-1 Day 10, Median: 65.0 pg/mL
  MCP-1 Day 10, Range: 21 to 266 pg/mL
MCP-1; CVC 75 mg
  MCP-1 Baseline, Mean: 26.6 pg/mL
  MCP-1 Baseline, Median: 8.0 pg/mL
  MCP-1 Baseline, Range: 5 to 92 pg/mL
  MCP-1 Change from Baseline to Day 10, Median: +36.0 pg/mL
  MCP-1 Day 10, Mean: 59.1 pg/mL
  MCP-1 Day 10, Median: 43.5 pg/mL
  MCP-1 Day 10, Range: 20 to 128 pg/mL
MCP-1; CVC 150 mg
  MCP-1 Baseline, Mean: 31.6 pg/mL
  MCP-1 Baseline, Median: 19.5 pg/mL
  MCP-1 Baseline, Range: 8 to 82 pg/mL
  MCP-1 Change from Baseline to Day 10, Median: +322.0 pg/mL
  MCP-1 Day 10, Mean: 372.0 pg/mL
  MCP-1 Day 10, Median: 368.0 pg/mL
  MCP-1 Day 10, Range: 79 to 605 pg/mL
[1]; CVC 100 mg
  D-dimer baseline value, mean: 187 ng/mL
  D-dimer baseline value, median: 150 ng/mL
  D-dimer change from baseline at Week 24, mean: -32 ng/mL
  D-dimer change from baseline at Week 24, median: -1.0 ng/mL
  D-dimer change from baseline at Week 48, mean: -41 ng/mL
  D-dimer change from baseline at Week 48, median: -1.0 ng/mL
  Fibrinogen baseline value, mean: 236 mg/dL
  Fibrinogen baseline value, median: 229 mg/dL
  Fibrinogen change from baseline at Week 24, mean: -3 mg/dL
  Fibrinogen change from baseline at Week 24, median: -14 mg/dL
  Fibrinogen change from baseline at Week 48, mean: 11 mg/dL
  Fibrinogen change from baseline at Week 48, median: 15 mg/dL
  IL-6 baseline value, mean: 2.51 pg/mL
  IL-6 baseline value, median: 1.90 pg/mL
  IL-6 change from baseline at Week 24, mean: 0.42 pg/mL
  IL-6 change from baseline at Week 24, median: 0.00 pg/mL
  IL-6 change from baseline at Week 48, mean: 0.29 pg/mL
  IL-6 change from baseline at Week 48, median: 0.00 pg/mL
  MCP-1 baseline value, mean: 128 pg/mL
  MCP-1 baseline value, median: 110 pg/mL
  MCP-1 change from baseline at Week 24, mean: 493 pg/mL
  MCP-1 change from baseline at Week 24, median: 429 pg/mL
  MCP-1 change from baseline at Week 48, mean: 636 pg/mL
  MCP-1 change from baseline at Week 48, median: 523 pg/mL
  hs-CRP baseline value, mean: 0.39 mg/dL
  hs-CRP baseline value, median: 0.15 mg/dL
  hs-CRP change from baseline at Week 24, mean: -0.16 mg/dL
  hs-CRP change from baseline at Week 24, median: -0.03 mg/dL
  hs-CRP change from baseline at Week 48, mean: -0.08 mg/dL
  hs-CRP change from baseline at Week 48, median: -0.01 mg/dL
  sCD14 (original values) baseline value, mean: 1.8e+06 pg/mL
  sCD14 (original values) baseline value, median: 1.73e+06 pg/mL
  sCD14 (original values) change from baseline at Week 12, mean: -140000 pg/mL
  sCD14 (original values) change from baseline at Week 12, median: -160000 pg/mL
  sCD14 (original values) change from baseline at Week 24, mean: -190000 pg/mL
  sCD14 (original values) change from baseline at Week 24, median: -180000 pg/mL
  sCD14 (original values) change from baseline at Week 32, mean: 110000 pg/mL
  sCD14 (original values) change from baseline at Week 32, median: 120000 pg/mL
  sCD14 (original values) change from baseline at Week 48, mean: 100000 pg/mL
  sCD14 (original values) change from baseline at Week 48, median: 100000 pg/mL
[1]; CVC 200 mg
  D-dimer baseline value, mean: 184 ng/mL
  D-dimer baseline value, median: 125 ng/mL
  D-dimer change from baseline at Week 24, mean: -64 ng/mL
  D-dimer change from baseline at Week 24, median: -50 ng/mL
  D-dimer change from baseline at Week 48, mean: -70 ng/mL
  D-dimer change from baseline at Week 48, median: -50 ng/mL
  Fibrinogen baseline value, mean: 248 mg/dL
  Fibrinogen baseline value, median: 260 mg/dL
  Fibrinogen change from baseline at Week 24, mean: -7 mg/dL
  Fibrinogen change from baseline at Week 24, median: -8 mg/dL
  Fibrinogen change from baseline at Week 48, mean: -10 mg/dL
  Fibrinogen change from baseline at Week 48, median: -13 mg/dL
  IL-6 baseline value, mean: 3.34 pg/mL
  IL-6 baseline value, median: 1.90 pg/mL
  IL-6 change from baseline at Week 24, mean: 0.81 pg/mL
  IL-6 change from baseline at Week 24, median: 0.00 pg/mL
  IL-6 change from baseline at Week 48, mean: -0.04 pg/mL
  IL-6 change from baseline at Week 48, median: 0.00 pg/mL
  MCP-1 baseline value, mean: 153 pg/mL
  MCP-1 baseline value, median: 137 pg/mL
  MCP-1 change from baseline at Week 24, mean: 753 pg/mL
  MCP-1 change from baseline at Week 24, median: 695 pg/mL
  MCP-1 change from baseline at Week 48, mean: 900 pg/mL
  MCP-1 change from baseline at Week 48, median: 756 pg/mL
  hs-CRP baseline value, mean: 0.46 mg/dL
  hs-CRP baseline value, median: 0.15 mg/dL
  hs-CRP change from baseline at Week 24, mean: -0.04 mg/dL
  hs-CRP change from baseline at Week 24, median: -0.04 mg/dL
  hs-CRP change from baseline at Week 48, mean: -0.18 mg/dL
  hs-CRP change from baseline at Week 48, median: -0.04 mg/dL
  sCD14 (original values) baseline value, mean: 1.88e+06 pg/mL
  sCD14 (original values) baseline value, median: 1.86e+06 pg/mL
  sCD14 (original values) change from baseline at Week 12, mean: -230000 pg/mL
  sCD14 (original values) change from baseline at Week 12, median: -210000 pg/mL
  sCD14 (original values) change from baseline at Week 24, mean: -230000 pg/mL
  sCD14 (original values) change from baseline at Week 24, median: -190000 pg/mL
  sCD14 (original values) change from baseline at Week 32, mean: -20000 pg/mL
  sCD14 (original values) change from baseline at Week 32, median: -20000 pg/mL
  sCD14 (original values) change from baseline at Week 48, mean: -40000 pg/mL
  sCD14 (original values) change from baseline at Week 48, median: -40000 pg/mL
[2]
  Inflammation in clinical pathology parameters or any tissue incl. liver (microscopic evaluation): No indication of inflammation
[2]; 3- and 9-month studies
  Plasma MCP-1 levels over controls: ~5 fold
[3]
  Circulating blood cell counts: no clear changes
Mouse monocytes
  Monocyte migration ex vivo (CCL2-induced chemotaxis): reduced
[4]
  Half-life in mice: ~2 h
